Laboratory results: PMC7145991, “Biochemical Functions of Glutathione S-Transferase Family of Salix babylonica” (Frontiers in Plant Science, 2020)

What was measured:
Experiment in all cases: spectrophotometric GSH-CDNB conjugation, nonlinear regression
Assay type in all cases: biochemical
Settings in all cases: GSH fixed 1.0 mM; 50 mM potassium phosphate pH 6.5; 25 °C; read-out: K mCDNB /
[1] = target: T1, SbGSTU3 (Salix babylonica, UniProt A0A4Y5R0K8)
T1 construct: gene GSTU3; full length, 6xHis-tag (pET30a), E. coli BL21 (DE3), Ni-Sepharose
T1 sequence (A0A4Y5R0K8 1-220): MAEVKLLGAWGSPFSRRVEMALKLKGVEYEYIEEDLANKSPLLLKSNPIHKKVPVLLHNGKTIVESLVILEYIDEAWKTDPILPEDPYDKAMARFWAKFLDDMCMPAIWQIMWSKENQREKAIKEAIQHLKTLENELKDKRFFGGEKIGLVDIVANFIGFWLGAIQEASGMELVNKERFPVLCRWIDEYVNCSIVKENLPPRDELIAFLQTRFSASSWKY
From the text: spectrophotometric GSH-CDNB conjugation, nonlinear regression on SbGSTU3

[2] = target: T2, SbGSTU1 (Salix babylonica, UniProt A0A4Y5R2M7)
T2 construct: gene GSTU1; full length, 6xHis-tag (pET30a), E. coli BL21 (DE3), Ni-Sepharose
From the text: spectrophotometric GSH-CDNB conjugation, nonlinear regression on SbGSTU1

[3] = target: T3, SbGSTU13 (Salix babylonica, UniProt A0A4Y5R0L5)
T3 construct: gene GSTU13; full length, 6xHis-tag (pET30a), E. coli BL21 (DE3), Ni-Sepharose
T3 sequence (A0A4Y5R0L5 1-222): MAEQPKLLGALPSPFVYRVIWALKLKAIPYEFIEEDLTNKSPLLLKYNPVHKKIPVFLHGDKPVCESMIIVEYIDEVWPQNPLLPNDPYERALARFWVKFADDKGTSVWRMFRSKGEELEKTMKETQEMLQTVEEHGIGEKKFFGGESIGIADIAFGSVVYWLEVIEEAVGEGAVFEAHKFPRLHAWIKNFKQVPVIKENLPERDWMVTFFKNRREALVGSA
From the text: spectrophotometric GSH-CDNB conjugation, nonlinear regression on SbGSTU13

[4] = target: T4, SbGSTU7 (Salix babylonica, UniProt A0A4Y5R087)
T4 construct: gene GSTU7; full length, 6xHis-tag (pET30a), E. coli BL21 (DE3), Ni-Sepharose
From the text: spectrophotometric GSH-CDNB conjugation, nonlinear regression on SbGSTU7

[5] = target: T5, SbGSTU10 (Salix babylonica, UniProt A0A4Y5QZX3)
T5 construct: gene GSTU10; full length, 6xHis-tag (pET30a), E. coli BL21 (DE3), Ni-Sepharose
From the text: spectrophotometric GSH-CDNB conjugation, nonlinear regression on SbGSTU10

[6] = target: T6, SbGSTU12 (Salix babylonica, UniProt A0A4Y5R0C1)
T6 construct: gene GSTU12; full length, 6xHis-tag (pET30a), E. coli BL21 (DE3), Ni-Sepharose
From the text: spectrophotometric GSH-CDNB conjugation, nonlinear regression on SbGSTU12

T5 sequence (A0A4Y5QZX3 1-220): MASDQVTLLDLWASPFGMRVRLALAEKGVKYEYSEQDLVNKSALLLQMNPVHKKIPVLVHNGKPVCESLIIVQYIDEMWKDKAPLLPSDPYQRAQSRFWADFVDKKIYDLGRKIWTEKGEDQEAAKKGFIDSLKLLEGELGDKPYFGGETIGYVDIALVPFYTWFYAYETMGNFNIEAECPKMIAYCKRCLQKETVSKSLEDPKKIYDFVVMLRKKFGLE
T4 sequence (A0A4Y5R087 1-219): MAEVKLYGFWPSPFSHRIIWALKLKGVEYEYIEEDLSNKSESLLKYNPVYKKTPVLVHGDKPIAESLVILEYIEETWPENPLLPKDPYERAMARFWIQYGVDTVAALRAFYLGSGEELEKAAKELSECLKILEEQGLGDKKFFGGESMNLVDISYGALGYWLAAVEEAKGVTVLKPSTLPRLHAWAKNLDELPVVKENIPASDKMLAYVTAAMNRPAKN
T2 sequence (A0A4Y5R2M7 1-219): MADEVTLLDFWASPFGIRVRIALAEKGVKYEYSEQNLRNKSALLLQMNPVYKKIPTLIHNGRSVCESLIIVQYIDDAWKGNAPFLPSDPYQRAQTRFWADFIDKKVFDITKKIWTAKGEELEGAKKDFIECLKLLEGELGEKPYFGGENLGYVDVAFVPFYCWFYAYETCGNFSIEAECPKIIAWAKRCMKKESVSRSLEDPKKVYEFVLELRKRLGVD
T6 sequence (A0A4Y5R0C1 1-222): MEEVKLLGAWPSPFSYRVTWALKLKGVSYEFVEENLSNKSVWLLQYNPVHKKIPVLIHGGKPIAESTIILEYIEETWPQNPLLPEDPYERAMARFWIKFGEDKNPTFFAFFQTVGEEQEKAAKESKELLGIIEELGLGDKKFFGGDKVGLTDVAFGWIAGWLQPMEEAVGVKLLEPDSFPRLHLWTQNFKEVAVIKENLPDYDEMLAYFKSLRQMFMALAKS

O=[N+]([O-])c1ccc(Cl)c([N+](=O)[O-])c1 [CDNB, 1-chloro-2,4-dinitrobenzene]
Km [1]: 1000 ± 33 µM
Km [2]: 201 ± 4 µM
Km [3]: 1270 ± 62 µM
Km [4]: 2070 ± 165 µM
Km [5]: 156 ± 2 µM
Km [6]: 2140 ± 272 µM
